Assay results: US9707283B2, “Genetically modified babesia parasites expressing protective tick antigens and uses thereof” (The United States of America as represented by the …, priority 2007, dated 2017)
In brackets after ≈: the same amount, converted by molar mass.

How the values were obtained:
[1] = system: B. bovis transfected parasite line 1-2-124 (gfp-bsd); assay: Growth curves of blasticidin selected parasite line 1-2-124 with blasticidin; assay type: cell-based, Babesia bovis; details: blasticidin at 6.4 μg/ml, 10 times higher than used for original selection
Procedure: (§1) Growth characteristics of the blasticidin selected parasite line 1-2-124 were examined and compared with mock pBS-transfected control parasites in the presence or absence of 6.4 μg/ml blasticidin. […] In addition, no differences were observed between growth rates of parasite cell line 1-2-124 and control parasites in the absence of blasticidin.

[2] = system: Plasmodium falciparum parasites; details: calculated for Plasmodium falciparum parasites, given for comparison; cited from earlier work
[3] = system: B. bovis control parasites transfected with pBS; assay: Growth curves of mock pBS-transfected control parasites with blasticidin; assay type: cell-based, Babesia bovis; details: blasticidin at 6.4 μg/ml
Procedure: as §1

[4] = system: B. bovis Mo7 strain; assay: Blasticidin inhibition of B. bovis growth in in vitro cultures; assay type: cell-based, Babesia bovis
Procedure: B. bovis parasites of the Mo7 strain were cultured in ˜1 ml cultures in 24 well plates containing 10% bovine red blood cells. Triplicate wells were cultured with or without increasing amounts of blasticidin added to the culture media at […], 2.4, and 4.8 μg/ml, prepared from a 5 mg/ml stock solution of blasticidin (Invitrogen) in sterile water, for three consecutive days. Culture media was replaced daily. The percentage of parasitized erythrocytes (ppe) was estimated by microscopic counting of Diff-Quik (Dade Behring) stained slides as described (Suarez and McElwain, (2008) Exp Parasitol. 118: 498-504). Percentage B. bovis inhibition was calculated by dividing the mean ppe in triplicate blasticidin treated wells by the mean ppe in triplicate control wells grown in the absence of blasticidin, and multiplying by 100.
To determine whether B. bovis growth could be inhibited with blasticidin, and to estimate the concentration of blasticidin appropriate for establishing a blasticidin/blasticidin deaminase (bsd) transfection system, B. bovis Mo7 strain parasites were cultured in the presence of varying concentrations of blasticidin ranging from 0 to 5 μg/ml in triplicate wells. The percentage of parasitized erythrocytes (ppe) in each well was determined for the first three days after splitting the cultures in each well to a starting ppe of 0.5%. […] Subsequent stable transfection experiments were performed using either 0.3 or 0.6 μg/ml, blasticidin.

SMILES: CN(CC[C@H](N)CC(=O)N[C@H]1C=C[C@H](n2ccc(N)nc2=O)O[C@@H]1C(=O)O)C(=N)N [blasticidin]
- parasite growth with or without blasticidin [1]: able to grow at similar rates
- IC50 [2]: 0.35 µg/mL (≈ 0.829 µM)
- parasite growth in the presence of blasticidin [3]: not able to grow
- 50% inhibitory concentration of blasticidin (IC50) ([4]; Mo7 strain, in vitro culture, after three days of drug selection, percentage of parasitized erythrocytes): ~0.4 µg/mL
- concentration of blasticidin resulting in negligible parasite growth ([4]; Mo7 strain, in vitro culture, three days): 0.64 to 1.25 µg/mL
- infected erythrocytes in stained slides ([4]; blasticidin dose of 5 μg/ml, after three days in culture): No B. bovis infected erythrocytes could be detected
